The source of these data is patent publication US20230330233A1, “COMPOSITIONS AND METHODS FOR DELIVERING PHARMACEUTICAL AGENTS” (priority 2018, published 2023).

Series [1] in a line: Dissolution and supersaturation in simulated gastric (SG) media, UV-vis, Example 1. The format is physicochemical. The settings on record: 37° C., Average (Standard Error of the Mean). The procedure:
(§1) To determine the dissolution and supersaturation behavior in SG and PBS media of all CUR, SUL, CUR@MOF-5 and SUL@MOF-5 composites and their physical mixture samples, UV-vis spectroscopy (which is applied to monitor the dissolution process) was used. Concentration of CUR and SUL at 37° C. was determined. FIGS. 4a-d illustrate the solubility of pure CUR, CUR@MOF-5 composite and physical mixture and pure SUL, SUL@MOF-5 composite and physical mixture in SG and PBS media respectively. […] Because the immediate release of CUR molecules (from CUR@mof-5 composite) led to rapid dissolution, which generates high supersaturation in the first 60 min. […] Subsequently, a crystallization process occurs accompanied by a decrease in CUR concentration in both media.

A short description of series [2]: Dissolution and supersaturation in phosphate buffer saline (PBS) media, UV-vis, Example 1. The format is physicochemical. Particulars: for AUC0-4 / Cmax: 37° C., Average (Standard Error of the Mean). Here is the method:
as §1

Series [3] in a line: Dissolution in SG media containing methyl cellulose polymer, Example 2. Format: physicochemical. The settings on record: SG media with methyl cellulose polymer, Average (Standard Error of the Mean). The text has this: (§2) This Example described further characterization of a variety of drugs in MOF-5. Methyl cellulose polymer was included in both SG and PBS) dissolution media to inhibit precipitation of drug molecules at high supersaturation and to serve as a proxy for what would be an extensive formulation process of this supersaturating drug delivery system. […] Immediate release of CUR molecules from CUR@MOF-5 via MOF hydrolytic decomposition leads to rapid dissolution which generates high supersaturation in the first 60 min (FIGS. 5a and b). […] This immediate drug release from drug@MOF-5 composite is in contrast with controlled drug release from an amorphous drug@MOF composite with a water stable framework ([…] al., Chem. Commun. 2015, 51, 13878).

A short description of series [4]: Dissolution in PBS media containing methyl cellulose polymer, Example 2. The format is physicochemical. Particulars: PBS media with methyl cellulose polymer, Average (Standard Error of the Mean).
Description: as §2

Another series relates to mouse model. The settings on record: oral, Ullmann's Encyclopedia; cited from earlier work.

For the molecule `COc1cc(/C=C/C(=O)CC(=O)/C=C/c2ccc(O)c(OC)c2)ccc1O` [CUR, curcumin], the AUC0-4 in series [1] was 0.41(6) mg*h/mL; in series [2], 0.22(3) mg*h/mL; in series [3], 0.39(6) mg*h/mL; in series [4] it was 0.15(2) mg*h/mL. Moreover, the Cmax in series [1] is 1.99(4) μg/mL; in series [2] it was 1.12(7) μg/mL; in series [3] it was 2.12(21) μg/mL; in series [4] it was 0.95(4) μg/mL.

With `CC1=C(CC(=O)O)c2cc(F)ccc2/C1=C\c1ccc([S+](C)[O-])cc1` (stereo not drawn) [SUL, sulindac], in series [1], the AUC0-4 was 1.32(2) mg*h/mL and the Cmax was 6.01(6) μg/mL. Also, in series [2], the “dissolution behavior in PBS media” value is given as “fully dissolved”, the AUC0-4 is listed as 15.82(21) mg*h/mL and the Cmax is 68.65(91) μg/mL. Further, in series [3], the AUC0-4 is listed as 1.38(2) mg*h/mL and the Cmax is 6.84(7) μg/mL.

`Nc1nc(N)c2nc(-c3ccccc3)c(N)nc2n1` [TAT, triamterene]: in series [4], the AUC0-4 was 5.89(9) mg*h/mL and the Cmax was 26.89(8) μg/mL.

For `O=C(O)c1ccc(C(=O)O)cc1` [terephthalic acid], the “lethal dose, LD50” value in the series with mouse model was “over 1 g/kg”.
